We go through 60 molecules from ChEMBL document CHEMBL5344444, “1-Benzylindoles as inhibitors of cytosolic phospholipase A2α: synthesis, biological activity, aqueous solubility, and cell permeability” (RSC Med Chem, 2024).

For one data set, the species on record is Sus scrofa. The data set can be described thus: Inhibition of porcine platelets cPLA2 alpha using 1-stearoyl-2-arachidonoyl-sn-glycero-3-phosphocholine as substrate at 10 uM incubated for 60 mins by RP-HPLC -MS analysis relative to control.
Data set [1] is described as follows: Inhibition of porcine platelets cPLA2 alpha using 1-stearoyl-2-arachidonoyl-sn-glycero-3-phosphocholine as substrate incubated for 60 mins by RP-HPLC -MS analysis. Further details: species or system Sus scrofa.
The nature of data set [2]: Aqueous solubility of compound in phosphate buffered saline at pH 7.4 incubated for 10 min by RP-HPLC analysis. It is filed as physicochemical.
Data set [3] in a line: Lipophilicity, logP of compound in acetonitrile/phosphate buffered saline at pH 7.4 by RP-HPLC analysis. It is filed as physicochemical.
The nature of data set [4]: Apparent permeability coefficient in human CaCo-2 cells at 10 uM incubated for 2 hrs by HPLC-MS analysis. It is filed as ADME, cell-based.
Data set [5] can be described thus: Drug metabolism in human CaCo-2 cells assessed as beta-oxidation of pentanoic acid chain by measuring 3-(5-{[5-Chloro-1-(2,4-dichlorobenzyl)indol-3-yl]methyl}-2H-tetrazol-2-yl) propionic acid formation at 10 uM. It is filed as ADME, cell-based. As to conditions: caco-2, 10 µM.

Each structure is given as a SMILES string. ≈ marks a conversion by molar mass, not a printed value. Calls of active or inactive are those of the source. The calls are words filed in the database; no cut-off is given here.

By inhibition is commonly meant the change of the read-out against control, counted positive when it falls. By IC50 is commonly meant the point on the concentration scale where inhibition reaches its midpoint. By solubility is commonly meant the dissolved amount per volume that the medium holds. Higher therefore signals a readily soluble substance. The logP is a log measure of how a compound divides between an organic and an aqueous phase. Low values mean a more hydrophilic compound, high ones a more lipophilic compound. In general, Papp refers to a coefficient for how fast a substance crosses the barrier.

Molecule `O=C(O)c1ccc(N/N=C/c2cn(Cc3ccc(C(F)(F)F)cc3)c3ccccc23)cc1` registered an inhibition in the data set filed under Sus scrofa of 15%.
`O=C(O)c1ccc2c(c1)c(C(=O)C(F)(F)F)cn2CCc1cn(Cc2ccc(Cl)cc2Cl)c2ccccc12` displayed an IC50 in data set [1] of 8 µM.
`O=C(O)c1ccc(N/N=C/c2cn(Cc3ccc(Cl)c(Cl)c3)c3ccccc23)cc1` displayed an inhibition in the data set filed under Sus scrofa of 20%.
In data set [1], `O=C(O)c1ccc2c(c1)c(C(=O)O)cn2CCc1cn(Cc2ccc(Cl)cc2Cl)c2ccccc12` displayed a 50% inhibitory concentration (IC50) greater than 10 µM. The molecule also had an inhibition in the data set listed under Sus scrofa of 24%.
Taken in the same sequence, the figures for `O=C(O)c1ccc2c(ccn2CCc2cn(Cc3ccc(Cl)cc3Cl)c3ccccc23)c1` were greater than 10 µM and 41%.
Taken in the same sequence, the figures for `O=C(O)c1ccc(Cn2nnc(-c3cn(Cc4ccc(Cl)cc4Cl)c4ccccc34)n2)cc1` were greater than 10 µM and 37%.
Taken in the same sequence, the figures for `O=C(O)CCCCn1nnc(Cc2cn(Cc3c(Cl)cccc3Cl)c3ccccc23)n1` were greater than 10 µM and 19%.
In data set [1], `O=C(O)CCCCn1nnc(Cc2cn(Cc3ccc(Cl)cc3Cl)c3ccc(OC(F)(F)F)cc23)n1` displayed an IC50 of 0.57 µM. This lies in the sub-micromolar range.
Take `O=C(O)CCCCn1nnc(Cc2cn(Cc3ccc(Cl)cc3Cl)c3ccc(F)cc23)n1`: the concentration in solution in data set [2] (solubility at 10 min) was 74 µg/mL (≈ 155 µM). The molecule also returned a log partition coefficient (logP) in data set [3] of 4.1. For the same molecule, it took 0.2 µM to reach half-maximal inhibition in data set [1] (IC50).
In data set [1], `Cc1ccc(Cn2cc(Cc3nnn(CCCCC(=O)O)n3)c3ccccc32)cc1` had an IC50 of 7 µM.
As to `COC(=O)c1cn(CCc2cn(Cc3ccc(Cl)cc3Cl)c3ccccc23)c2ccc(C(=O)O)cc12`, the concentration for half-maximal inhibition (IC50) in data set [1] is 7.1 µM.
`O=C(O)c1ccc2nn(CCc3cn(Cc4ccc(Cl)cc4Cl)c4ccccc34)cc2c1` had a concentration for half-maximal inhibition (IC50) in data set [1] greater than 10 µM. Moreover, the inhibition in the data set listed under Sus scrofa is 32%.
On to `O=C(O)CCCCn1nnc(Cc2cn(Cc3ccc(Cl)c(Cl)c3)c3ccccc23)n1`, for which 5.6 µM corresponded to half-maximal inhibition in data set [1] (IC50).
Molecule `O=C(O)CCCCn1nnc(-c2cn(Cc3ccc(Cl)cc3Cl)c3ccccc23)n1` registered an IC50 in data set [1] greater than 10 µM. For the same molecule, in the data set listed under Sus scrofa, the inhibition was 48%.
Taken in the same sequence, the figures for `O=C(O)CCCCn1nnc(Cc2cn(Cc3ccc(F)cc3)c3ccccc23)n1` were greater than 10 µM and 48%.
In data set [1], `O=C(O)CCCCn1nnc(Cc2cn(Cc3ccc(Cl)cc3Cl)c3ccc(-c4ccc(Cl)cc4)cc23)n1` displayed an IC50 of 0.9 µM.
Turning to `O=C(O)c1ccc(N/N=C/c2cn(Cc3ccccc3Oc3ccccc3)c3ccccc23)cc1`, in the data set filed under Sus scrofa, the inhibition was 15%.
For the molecule `O=C(O)c1ccc(N/N=C/c2cn(Cc3ccc(Cl)cc3Cl)c3ccccc23)cc1`, the IC50 in data set [1] is 22 µM. For the same molecule, the inhibition in the data set filed under Sus scrofa was 21%.
In data set [1], `O=C(O)CCCn1nnc(-c2cn(Cc3ccc(Cl)cc3Cl)c3ccccc23)n1` yielded a half-inhibitory concentration (IC50) greater than 10 µM. The inhibition in the data set listed under Sus scrofa is 22%.
`O=C(O)CCCCn1nnc(Cc2cn(Cc3ccc(Cl)cc3Cl)c3cc(Cl)ccc23)n1` gave a half-maximal inhibitory concentration (IC50) in data set [1] of 0.36 µM.
On the same count and under the same terms, next, `COc1ccc2c(Cc3nnn(CCCCC(=O)O)n3)cn(Cc3ccc(Cl)cc3Cl)c2c1`: 4.6 µM.
As to `O=C(O)CCCCn1nnc(Cc2cn(Cc3ccc(Cl)cc3Cl)c3ccccc23)n1`, the solubility at 10 min in data set [2] was found to be 152 µg/mL (≈ 332 µM). Moreover, the lipophilicity (logP) in data set [3] is listed as 4. In data set [1], the IC50 was determined as 0.71 µM.
`Cc1c(CCOc2ccc(C(=O)O)cc2)c2cc(Cl)ccc2n1C(c1ccccc1)c1ccccc1` returned a solubility at 10 min in data set [2] of less than 1 µg/mL. In data set [3], this molecule displayed a logP of 6.2. The molecule also showed an IC50 in data set [1] of 0.23 µM.
As to `O=C(O)CCCCn1nnc(Cc2cn(Cc3cccc(Cl)c3)c3ccccc23)n1`, the concentration for half-maximal inhibition (IC50) in data set [1] was greater than 10 µM. For the same molecule, the inhibition in the data set filed under Sus scrofa amounted to 33%.
`O=C(O)CCCCn1nnc(Cc2cn(Cc3ccccc3Cl)c3ccccc23)n1` returned an IC50 in data set [1] of 2.9 µM.
`O=C(O)CCCCn1nnc(Cc2cn(Cc3ccc(Cl)cc3Cl)c3ccc(C(F)(F)F)cc23)n1`: in data set [2], the solubility at 10 min is less than 1 µg/mL. The molecule further yielded a log partition coefficient (logP) in data set [3] of 4.9. Also, the 50% inhibitory concentration (IC50) in data set [1] was determined as 0.074 µM.
Molecule `O=C(O)c1ccc(N/N=C/c2cn(Cc3ccccc3)c3ccccc23)cc1` returned an inhibition in the data set filed under Sus scrofa of 16%.
`Cc1noc(-c2cn(CCc3cn(Cc4ccc(Cl)cc4Cl)c4ccccc34)c3ccc(C(=O)O)cc23)n1` returned an IC50 in data set [1] greater than 10 µM. Besides, in the data set listed under Sus scrofa, the inhibition is 47%.
In data set [1], `O=C(O)CCCCn1nnc(Cc2cn(Cc3ccc(Cl)cc3Cl)c3cc(C(F)(F)F)ccc23)n1` had an IC50 of 0.17 µM.
For the molecule `O=C(O)c1ccc(N/N=C/c2cn(Cc3cccc(Oc4ccccc4)c3)c3ccccc23)cc1`, in the data set filed under Sus scrofa, the inhibition turned out to be 17%.
`O=C(O)CCCn1nnc(CCc2cn(Cc3ccc(Cl)cc3Cl)c3ccccc23)n1` showed an IC50 in data set [1] greater than 10 µM. For the same molecule, the inhibition in the data set listed under Sus scrofa turned out to be 23%.
In turn, `CN(/N=C/c1cn(Cc2ccc(Cl)cc2Cl)c2ccccc12)c1ccc(C(=O)O)cc1` gave an inhibition in the data set filed under Sus scrofa of 27%.
On to `Cc1ccc2c(Cc3nnn(CCCCC(=O)O)n3)cn(Cc3ccc(Cl)cc3Cl)c2c1`, for which, in data set [1], the half-inhibitory concentration (IC50) amounted to 1 µM.
`O=C(O)c1ccc(OC(=O)c2cn(Cc3ccc(Cl)cc3Cl)c3ccccc23)cc1` showed an IC50 in data set [1] greater than 10 µM. Further, the inhibition in the data set filed under Sus scrofa is 45%.
For the molecule `O=C(O)c1ccc(N/N=C/c2cccc3c2ccn3Cc2ccc(Cl)cc2Cl)cc1`, the inhibition in the data set filed under Sus scrofa was 24%.
The same measure, in the same setting: next, `O=C(O)CCCCn1nnc(Cc2cn(Cc3ccc(C(F)(F)F)cc3)c3ccccc23)n1`: “inactive”.
`O=C(O)CCCCn1nnc(Cc2cn(Cc3ccc(Cl)cc3Cl)c3ccc(OCc4ccc(Cl)cc4)cc23)n1`: the IC50 in data set [1] was 5.3 µM.
Same read-out and setting: next, `O=C(O)CCCCn1nnc(CCc2cn(Cc3ccc(Cl)cc3Cl)c3ccccc23)n1`: 4.8 µM.
For `COc1ccc2c(c1)c(CC(=O)O)c(C)n2C(=O)c1ccc(Cl)cc1` [INDOMETHACIN], the solubility at 10 min in data set [2] came out at 260 µg/mL (≈ 727 µM). The molecule also gave a logP in data set [3] of 2.9. Moreover, in data set [4], the apparent permeability coefficient (Papp) at 2 h, 10 µM was determined as 27 ×10⁻⁶ cm/s.
Molecule `O=C(O)CCCCCn1nnc(Cc2cn(Cc3ccc(Cl)cc3Cl)c3ccccc23)n1` showed an IC50 in data set [1] of 1.4 µM.
As for `O=C(O)CCCn1nnc(Cc2cn(Cc3ccc(Cl)cc3Cl)c3ccccc23)n1`, the IC50 in data set [1] was greater than 10 µM. The molecule further had an inhibition in the data set filed under Sus scrofa of 32%.
The molecule `O=C(O)CCc1ccc2c(c1)c(CCc1ccccc1)cn2-c1ccc(Oc2ccccc2)cc1` displayed a solubility at 10 min in data set [2] of less than 1 µg/mL. This molecule came in with a logP in data set [3] of 6.4. The molecule also showed an IC50 in data set [1] of 0.29 µM.
`O=C(Cc1cn(Cc2ccc(Cl)cc2Cl)c2ccccc12)Oc1ccc(C(=O)O)cc1` had a half-maximal inhibitory concentration (IC50) in data set [1] of 3.2 µM.
Turning to `O=C(O)CCCCn1nnc(Cc2cn(Cc3ccc(Cl)cc3Cl)c3ccc(Cl)cc23)n1`, the Drug metabolism result in data set [5] is recorded as “Metabolite_Detected”. Besides, in data set [2], the solubility at 10 min was less than 1 µg/mL. In data set [3], this molecule registered a logP of 4.7. Moreover, in data set [1], 0.071 µM corresponded to half-maximal inhibition (IC50). In data set [4], the apparent permeability coefficient (Papp) at 2 h, 10 µM is 15 ×10⁻⁶ cm/s.
`COc1ccc2c(c1)c(Cc1nnn(CCCCC(=O)O)n1)cn2Cc1ccc(Cl)cc1Cl`: the 50% inhibitory concentration (IC50) in data set [1] came to 4.7 µM.
`O=C(O)c1ccc(N/N=C/c2ccc3c(ccn3Cc3ccc(Cl)cc3Cl)c2)cc1` displayed an inhibition in the data set filed under Sus scrofa of 30%.
`O=C(O)c1ccc(N/N=C/c2ccc3ccn(Cc4ccc(Cl)cc4Cl)c3c2)cc1` had an inhibition in the data set filed under Sus scrofa of 32%.
Turning to `O=C(O)c1ccc2nn(CCc3cn(Cc4ccc(Cl)cc4Cl)c4ccccc34)nc2c1`, in data set [1], 3.9 µM corresponded to half-maximal inhibition (IC50).
Same read-out and setting: next, `O=C(O)c1ccc(Cn2nnc(Cc3cn(Cc4ccc(Cl)cc4Cl)c4ccccc34)n2)cc1`: 2.8 µM.
Same read-out and setting: with `O=C(CCc1cn(Cc2ccc(Cl)cc2Cl)c2ccccc12)Oc1ccc(C(=O)O)cc1` the figure was 6 µM; with `O=C(O)CCCCCn1nnc(-c2cn(Cc3ccc(Cl)cc3Cl)c3ccccc23)n1`, 9 µM.
In data set [1], `O=C(O)CCCCn1nnc(Cc2cn(Cc3ccc(-c4ccccc4)cc3)c3ccccc23)n1` gave an IC50 greater than 10 µM. The molecule also returned an inhibition in the data set filed under Sus scrofa of 47%.
In data set [1], `O=C(O)CCCCn1nnc(Cc2cn(Cc3ccc(Cl)cc3Cl)c3ccc(-c4ccccc4)cc23)n1` showed an IC50 of 3.2 µM. In other words, the single-digit micromolar range.
As for `O=C(O)c1ccc(N/N=C/c2cn(Cc3ccc(Oc4ccccc4)cc3)c3ccccc23)cc1`, in the data set filed under Sus scrofa, the inhibition result is “inactive”.
Turning to `Cc1ccc2c(c1)c(Cc1nnn(CCCCC(=O)O)n1)cn2Cc1ccc(Cl)cc1Cl`, the concentration in solution in data set [2] (solubility at 10 min) was 15 µg/mL (≈ 31.8 µM). Besides, in data set [3], the lipophilicity (logP) is recorded as 4.6. The IC50 in data set [1] stood at 0.21 µM.
`O=C(O)CCCCn1nnc(Cc2cn(Cc3ccccc3)c3ccccc23)n1` displayed a 50% inhibitory concentration (IC50) in data set [1] greater than 10 µM. This molecule also showed an inhibition in the data set listed under Sus scrofa of 41%.
Consider `O=C(O)CCCCn1nnc(Cc2cn(Cc3ccc(Cl)cc3)c3ccccc23)n1`, for which, in data set [1], the half-maximal inhibitory concentration (IC50) stood at 4.2 µM.
On the same count and under the same terms, next, `O=C(O)c1ccc(OCCc2cn(Cc3ccc(Cl)cc3Cl)c3ccccc23)cc1`: 1.1 µM.
On the same count and under the same terms, with `O=C(O)CCCCn1nnc(Cc2cn(Cc3ccc(Cl)cc3Cl)c3cc(F)ccc23)n1` the figure was 0.75 µM; with `O=C(O)c1ccc2c(cnn2CCc2cn(Cc3ccc(Cl)cc3Cl)c3ccccc23)c1`, 3.8 µM.
